Like-named read-outs stand apart in the source and are kept apart here.
Columns and labels:
MimiCE = biological target: T1, MimiCE (Acanthamoeba polyphaga mimivirus, UniProt Q5UQX1); experiment: biochemical; type: biochemical; conditions: for IC50/IC50 TbCet1, MimiCE: ratio in parentheses;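 on all read-outs here: mimivirus capping enzyme triphosphatase ATPase reaction, radiolabeled ATP hydrolysis to Pi quantified by TLC after 10 min, normalized to no-inhibitor control with 5% DMSO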
T1 construct: the N-terminal RTPase domain (amino acids [aa] 1 to 237) of mimivirus capping enzyme (MimiCE); HisSmt3 (N, cleaved yes); made in house; host or cells: Escherichia coli

SceCet1 = biological target: T2, SceCet1 (Saccharomyces cerevisiae, UniProt O13297); experiment: TLC assay for 32Pi release from [γ-32P]ATP, SceCet1; type: biochemical; conditions: for IC50/IC50 TbCet1, SceCet1: ratio in parentheses
T2 construct: C-terminal catalytic domain (aa 241 to 539) of S. cerevisiae RTPase (SceCet1); made in house; host or cells: Escherichia coli

CthTTM = biological target: T3, CthTTM (Acetivibrio thermocellus, UniProt A3DIJ8); experiment: TLC assay for 32Pi release from [γ-32P]ATP, CthTTM; type: biochemical, Clostridium thermocellum; conditions: for IC50/IC50 TbCet1, CthTTM: ratio in parentheses
T3 sequence (A3DIJ8 1-156): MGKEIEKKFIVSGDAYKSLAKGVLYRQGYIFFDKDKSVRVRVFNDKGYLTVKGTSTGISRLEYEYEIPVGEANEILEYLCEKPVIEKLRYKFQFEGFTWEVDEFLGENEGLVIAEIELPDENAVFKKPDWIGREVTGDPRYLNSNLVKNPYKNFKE

Lef4 = biological target: T4, Lef4 (Autographa californica nuclear polyhedrosis virus, UniProt P41477); experiment: TLC assay for 32Pi release from [γ-32P]ATP, Lef4; type: biochemical, Autographa californica nucleopolyhedrovirus (AcNPV); conditions: for IC50: 50 nM Lef4, 37°C, read-out: IC50 Lef4; for IC50/IC50 TbCet1, Lef4: ratio in parentheses;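 on all read-outs here: Lef4 RNA triphosphatase cleaving radiolabelled ATP over 10 min at 37°C, hydrolysis set relative to inhibitor-free 5% DMSO controls, comparisons made against TbCet1 tested the same way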
T4 construct: the N-terminal RTPase domain (aa 1 to 236) of AcNPV Lef4 capping enzyme; HisSmt3 (N, cleaved yes); made in house; host or cells: Escherichia coli

TbCet1 = biological target: T5, TbCet1 (Trypanosoma brucei brucei, UniProt Q582T2); experiment: TLC assay for 32Pi release from [γ-32P]ATP, TbCet1; conditions: for IC50: 2.2 nM TbCet1, 0.2 mM ATP, 2 mM Mn2+, 10 min 37°C; for inhibition of TbCet1 (in words): 32P phosphate release assay
T5 sequence (Q582T2 1-253): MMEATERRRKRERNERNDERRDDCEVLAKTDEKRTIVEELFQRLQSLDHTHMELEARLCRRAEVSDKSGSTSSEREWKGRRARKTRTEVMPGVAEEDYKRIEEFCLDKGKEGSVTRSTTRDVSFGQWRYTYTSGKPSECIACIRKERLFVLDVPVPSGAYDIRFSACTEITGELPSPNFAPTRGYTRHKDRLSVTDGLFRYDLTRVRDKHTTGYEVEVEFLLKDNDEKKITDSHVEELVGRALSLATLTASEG

[1] = read-out: IC50 TbCet1 by 32P assay
[2] = read-out: IC50 MimiCE, 7 nM MimiCE, 37°C
[3] = read-out: IC50 SceCet1, 25 nM SceCet1, 30°C
[4] = read-out: IC50 CthTTM, 500 nM CthTTM, 37°C
[5] = 25 nM SceCet1, 30°C, read-out: IC50 SceCet1
[6] = 500 nM CthTTM, 37°C, read-out: IC50 CthTTM

T4 sequence (P41477 1-236): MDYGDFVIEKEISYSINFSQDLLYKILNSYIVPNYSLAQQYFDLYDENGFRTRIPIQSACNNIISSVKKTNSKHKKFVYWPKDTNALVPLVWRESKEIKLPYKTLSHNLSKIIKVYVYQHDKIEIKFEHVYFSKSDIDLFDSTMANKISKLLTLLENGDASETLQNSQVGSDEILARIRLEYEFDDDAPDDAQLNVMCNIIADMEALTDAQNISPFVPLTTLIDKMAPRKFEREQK
T2 sequence (O13297 241-539): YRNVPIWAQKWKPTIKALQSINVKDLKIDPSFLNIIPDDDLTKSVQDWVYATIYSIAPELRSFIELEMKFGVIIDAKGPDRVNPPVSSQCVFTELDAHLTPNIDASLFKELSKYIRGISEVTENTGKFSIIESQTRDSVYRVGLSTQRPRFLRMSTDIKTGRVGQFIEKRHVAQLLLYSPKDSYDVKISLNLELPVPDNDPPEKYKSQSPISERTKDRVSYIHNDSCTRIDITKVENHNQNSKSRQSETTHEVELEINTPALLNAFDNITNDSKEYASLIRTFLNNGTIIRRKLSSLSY
T1 sequence (Q5UQX1 1-237): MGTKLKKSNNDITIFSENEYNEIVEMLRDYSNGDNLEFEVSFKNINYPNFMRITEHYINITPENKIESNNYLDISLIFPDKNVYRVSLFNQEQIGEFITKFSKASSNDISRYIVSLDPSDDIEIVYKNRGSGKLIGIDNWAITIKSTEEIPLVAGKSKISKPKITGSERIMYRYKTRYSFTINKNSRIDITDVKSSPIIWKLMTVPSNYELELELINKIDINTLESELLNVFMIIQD

Structure (SMILES)	IC50 (MimiCE) [µM]	IC50 (Lef4) [µM]	IC50 (TbCet1; IC50 TbCet1 by 32P assay) [µM]	IC50 (TbCet1; [1]) [µM]	IC50/IC50 TbCet1, MimiCE (MimiCE)	IC50/IC50 TbCet1, CthTTM (CthTTM)	IC50/IC50 TbCet1, Lef4 (Lef4)	further results
O=C(O[C@@H]1C[C@@](O)(C(=O)O)C[C@@H](O)[C@@H]1O)c1cc(O)c(O)c(O)c1 [Compound 1O, 5-galloylquinic acid]	> 500	> 500	125	–	–	–	–	activity against MimiCE (in words) (MimiCE): no activity; IC50 (SceCet1): 10 µM; IC50/IC50 TbCet1, SceCet1 (SceCet1): 0.08; IC50 (CthTTM): > 500 µM; activity against CthTTM (in words) (CthTTM): no activity; activity against Lef4 (in words) (Lef4): no activity
O=C(O)[C@]1(O)C[C@@H](O)[C@@H](O)[C@H](O)C1 [Quinic acid, reference compound]	–	–	–	–	–	–	–	inhibition of TbCet1 (in words) (TbCet1): no inhibition
COc1cc(C=CC(=O)OC2[C@H](O)CC(O)(C(=O)O)C[C@H]2O)ccc1O (stereo partly drawn) [Compound 1P, 4-feruoylquinic acid]	–	–	–	160	–	–	–	fold less effective against TbCet1 than 5-feruoylquinic acid (TbCet1): 13 fold
O=C(Oc1cc(C(=O)O[C@@H]2C[C@@](O)(C(=O)O)C[C@@H](OC(=O)c3cc(O)c(O)c(O)c3)[C@@H]2O)cc(O)c1O)c1cc(O)c(O)c(O)c1 [Compound 1F, 3-galloyl,5-galloyl-galloylquinic acid]	–	33	–	–	15	95	150	IC50 (MimiCE; [2]): 3.4 µM; IC50 (SceCet1; [3]): > 500 µM; IC50 (CthTTM; [4]): 21 µM
O=C(O)c1cc(O)c(O)c(O)c1 [gallic acid, 3,4,5-trihydroxybenzoic acid, reference compound]	–	–	–	–	–	–	–	inhibition of TbCet1 (in words) (TbCet1): no inhibition
O=C(/C=C/c1ccc(O)cc1)O[C@@H]1CC(O)(C(=O)O)C[C@@H](OC(=O)/C=C/c2ccc(O)cc2)C1O (stereo partly drawn) [Compound 1M, 3,5-dicoumaroylquinic acid]	> 500	> 500	24	–	–	–	–	IC50 (SceCet1): > 500 µM; IC50 (CthTTM): > 500 µM; fold drop in potency of TbCet1 inhibition versus 3,5-dicaffeoylquinic acid (compound 1B) (TbCet1): 340 fold
O=C(/C=C/c1ccc(O)c(O)c1)O[C@@H]1C[C@@](O)(C(=O)O)C[C@@H](O)[C@@H]1O [Compound 1T, 5-caffeoylquinic acid]	–	–	–	> 500	–	–	–	–
COc1ccc(/C=C/C(=O)O[C@@H]2C[C@@](O)(C(=O)O)C[C@@H](O)[C@@H]2O)cc1O [Compound 1J, 5-p-feruoylquinic acid]	–	–	–	2.4	–	–	–	IC50 (SceCet1; [5]): > 500 µM; IC50 (CthTTM; [6]): > 500 µM
COc1cc(/C=C/C(=O)OC2(C(=O)O)C[C@@H](O)C(O)[C@H](O)C2)ccc1O (stereo partly drawn) [Compound 1R, 1-feruoylquinic acid]	–	–	–	> 500	–	–	–	inhibition of TbCet1 (in words) (TbCet1): inactive
COc1cc(/C=C/C(=O)O[C@@H]2C[C@](O)(C(=O)O)C[C@@H](O)[C@H]2O)ccc1O [Compound 1L, 5-feruoylquinic acid]	–	> 500	–	12	–	–	–	IC50 (MimiCE; 7 nM MimiCE, 37°C, read-out: IC50 MimiCE): > 500 µM; IC50 (SceCet1; [5]): > 500 µM; IC50 (CthTTM; [6]): > 500 µM
O=C(OC1[C@H](OC(=O)c2ccccc2)CC(OC(=O)c2ccccc2)(C(=O)O)C[C@H]1OC(=O)c1ccccc1)c1ccccc1 (stereo partly drawn) [Compound 1K]	20	46	5.8	–	3	12	8	IC50 (SceCet1): > 500 µM; IC50 (CthTTM): 72 µM
O=C(/C=C/c1ccc(O)cc1)O[C@@H]1[C@H](O)C[C@@](O)(C(=O)O)C[C@H]1OC(=O)/C=C/c1ccc(O)cc1 [Compound 1H, 3,4-dicoumaroylquinic acid]	–	140	–	1.3	40	–	108	IC50 (MimiCE; [2]): 52 µM; IC50 (SceCet1; [3]): > 500 µM; IC50 (CthTTM; [4]): > 500 µM
O=C(/C=C/c1ccc(O)c(O)c1)O[C@@H]1CC(C(=O)O)=C[C@@H](O)[C@H]1O [Compound 6E, 5-caffeoylshikimate]	–	–	–	> 500	–	–	–	inhibition of TbCet1 (in words) (TbCet1): did not inhibit
O=C(C=Cc1ccccc1)OC1C=C(C(=O)O)CC(OC(=O)C=Cc2ccccc2)C1O (stereo not drawn) [Compound 6D, 3,5-dicannamolylshikimate]	–	–	–	> 500	–	–	–	inhibition of TbCet1 (in words) (TbCet1): did not inhibit
O=C(/C=C/c1ccc(O)c(O)c1)O[C@@H]1C[C@](OC(=O)/C=C/c2ccc(O)c(O)c2)(C(=O)O)C[C@@H](O)[C@H]1O [Compound 1G, 1,3-dicaffeoylquinic acid]	–	22	–	–	11	162	65	IC50 (MimiCE; [2]): 3.7 µM; IC50 (SceCet1; [5]): > 500 µM; IC50 (CthTTM; [6]): 55 µM
O=C(/C=C/c1ccc(O)c(O)c1)OC1[C@H](OC(=O)/C=C/c2ccc(O)c(O)c2)CC(O)(C(=O)O)C[C@H]1OC(=O)/C=C/c1ccc(O)c(O)c1 (stereo in doubt) [Compound 1D, 3,4,5-Tricaffeoylquinic acid]	–	7.2	–	–	107	1,067	48	fold lower potency against MimiCE than against TbCet1 (MimiCE): 107 fold; IC50 (MimiCE; [2]): 16 µM; fold lower potency against SceCet1 than against TbCet1 (SceCet1): 67 fold; IC50 (SceCet1; [5]): 10 µM; IC50/IC50 TbCet1, SceCet1 (SceCet1): 67; fold lower potency against CthTTM than against TbCet1 (CthTTM): 1,100 fold; IC50 (CthTTM; [6]): 160 µM; fold lower potency against Lef4 than against TbCet1 (Lef4): 48 fold
CC(=O)O[C@@]12C[C@@H](OC(=O)/C=C/c3ccc(O)c(O)c3)[C@@H](OC(=O)/C=C/c3ccc(O)c(O)c3)[C@@H](C1)OC2=O [Compound 6C, 1-acetyl,4,5-dicaffeoylquinide]	15	21	3.6	–	4	13	6	IC50 (SceCet1): 14 µM; IC50/IC50 TbCet1, SceCet1 (SceCet1): 4; IC50 (CthTTM): 46 µM; fold lowered potency against TbCet1 versus compound 6A (TbCet1; acetate for the R1 caffeic acid): 30 fold
O=C(/C=C/c1ccc(O)cc1)OC1[C@H](O)CC(O)(C(=O)O)C[C@H]1O (stereo partly drawn) [Compound 1N]	> 500	> 500	25	–	–	–	–	IC50 (SceCet1; [5]): > 500 µM; IC50 (CthTTM; [6]): > 500 µM
O=C(/C=C/c1ccccc1)O[C@@H]1C[C@](OC(=O)/C=C/c2ccccc2)(C(=O)O)C[C@@H](OC(=O)/C=C/c2ccccc2)[C@H]1OC(=O)/C=C/c1ccccc1 [Compound 1I, tetracinnamoylquinic acid]	17	6	1.6	–	11	11	4	IC50 (SceCet1): > 500 µM; IC50 (CthTTM): 17 µM; fold less potent as TbCet1 inhibitor than tetracaffeoylquinic acid (compound 1A) (TbCet1): 120 fold
O=C(/C=C/c1ccc(O)c(O)c1)O[C@@H]1C[C@](OC(=O)/C=C/c2ccc(O)c(O)c2)(C(=O)O)C[C@@H](OC(=O)/C=C/c2ccc(O)c(O)c2)[C@H]1O [Compound 1E, 1,3,5-tricaffeoylquinic acid]	8.4	5.6	0.19	–	44	174	29	IC50 (SceCet1; [5]): 29 µM; IC50/IC50 TbCet1, SceCet1 (SceCet1): 153; IC50 (CthTTM; [6]): 33 µM
O=C(Oc1cc(C(=O)O[C@@H]2C[C@@](O)(C(=O)O)C[C@@H](O)[C@@H]2O)cc(O)c1O)c1cc(O)c(O)c(O)c1 [Compound 1C, 5-galloyl-galloylquinic acid]	–	75	–	–	–	–	682	IC50 (SceCet1; [3]): > 500 µM; IC50 (CthTTM; [4]): > 500 µM; fold lower potency against Lef4 than against TbCet1 (Lef4): 680 fold; fold more potent as TbCet1 inhibitor than 5-galloylquinic acid (compound 1O) (TbCet1): 1,100 fold
